Where two headings read alike, the source gives them in different places.
Columns and labels:
PDK-3 = molecular target: T1, PDK-3 (Homo sapiens, UniProt Q15120); experiment: DELFIA-based enzyme functional assay (E1 substrate), PDK-3; assay type: biochemical; settings: data not shown
T1 construct: PDK-3: residues 9-406; made in house; host or cells: E. coli BL21

PDK-4 = molecular target: T2, PDK-4 (Homo sapiens, UniProt Q16654); experiment: DELFIA-based enzyme functional assay (E1 substrate), PDK-4; assay type: biochemical; settings: data not shown
T2 construct: PDK-4: residues 1-412; made in house; host or cells: E. coli BL21
T2 sequence (Q16654 whole entry, the tested form may be a part): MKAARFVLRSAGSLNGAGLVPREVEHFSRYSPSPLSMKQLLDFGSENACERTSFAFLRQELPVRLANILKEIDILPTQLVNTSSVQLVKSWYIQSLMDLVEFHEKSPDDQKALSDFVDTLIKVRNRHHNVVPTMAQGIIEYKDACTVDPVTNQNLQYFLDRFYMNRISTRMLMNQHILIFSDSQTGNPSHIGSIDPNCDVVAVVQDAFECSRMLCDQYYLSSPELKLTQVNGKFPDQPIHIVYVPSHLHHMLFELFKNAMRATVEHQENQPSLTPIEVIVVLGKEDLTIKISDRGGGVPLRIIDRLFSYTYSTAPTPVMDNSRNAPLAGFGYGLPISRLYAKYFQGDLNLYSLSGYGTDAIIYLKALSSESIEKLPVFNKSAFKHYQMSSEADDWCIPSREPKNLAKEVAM

[1] = tested on: p(Ser^293)E1α levels in ES-2 cells; experiment: Phospho(Ser293) E1α suppression in ES-2 cells; assay type: cell-based
Procedure: Phospho(Ser^293) E1α MSD ELISA assay: All reagents were purchased from Meso Scale Discovery (Maryland, USA) unless otherwise stated. Following compound treatment, cells were treated with lysis buffer (TBS pH 7.4, 1% Tween-20, 1 mM EGTA, 1 mM EDTA, 1 mM NaF, protease and phosphatase inhibitor cocktails (Roche)) on ice and the lysates added to standard bind 96 well MSD plates which were pre-loaded with custom phospho(Ser^293)E1α ‘capture’ antibody (2 μg/ml in TBST containing 3% (w/v) blocker A) (Genescript) and blocked with 3% (w/v) blocker A, followed by a 1 h incubation at RT. The wells were then washed 3X with TBST (0.05% tween 20) followed by the addition of 2 μg/ml E1α ‘detection’ antibody (2 μg/ml) (Abcam) and a further 1 h incubation at RT. The wells were again washed 3X with TBST followed by the addition of 1 μg/ml Goat anti-mouse Sulfotag antibody, and a further TBST wash prior to the addition of 2X read buffer T. The chemiluminescent signal was then measured on a MSD sector imager 2400.

PDK-1 [2] = molecular target: T3, PDK-1 (Homo sapiens, UniProt Q15118); experiment: Isothermal calorimetry (ITC) binding affinity; design: PDK-1: residues 30-436; made in house; host or cells: E. coli BL21
T3 sequence (Q15118 30-436): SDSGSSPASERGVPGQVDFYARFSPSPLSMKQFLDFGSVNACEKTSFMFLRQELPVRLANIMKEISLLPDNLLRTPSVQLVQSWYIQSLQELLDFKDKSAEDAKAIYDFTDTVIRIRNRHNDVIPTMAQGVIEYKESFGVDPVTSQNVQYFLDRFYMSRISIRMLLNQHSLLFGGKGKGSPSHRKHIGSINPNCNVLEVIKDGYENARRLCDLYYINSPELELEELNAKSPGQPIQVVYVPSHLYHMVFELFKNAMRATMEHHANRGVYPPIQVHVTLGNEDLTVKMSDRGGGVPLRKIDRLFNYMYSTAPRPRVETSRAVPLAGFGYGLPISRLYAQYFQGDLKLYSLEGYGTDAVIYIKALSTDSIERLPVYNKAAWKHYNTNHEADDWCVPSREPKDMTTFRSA

PDK-1 [3] = molecular target: T3, PDK-1; settings: read-out: In vitro functional (E1/E2), IC50, PDK-1; E1/E2 as the substrate
Procedure: DELFIA assay reagents (assay buffer, wash buffer, enhancement solution and anti-rabbit IgG-Eu-N1 secondary antibody) and plates were obtained from Perkin Elmer (MD, USA). Test compounds were subjected to a 10 point tripling dilution in DMSO, diluted in MOPS buffer (60mM MOPS pH7.2, 15 mM Magnesium acetate, 60 mM KCl) and added to the enzyme mix (10 nM PDK-1, 2 and 3 or 20 nM PDK-4, 300nM E1, 0.1 mg/mL BSA, 1 mM DTT) in 96-well V-bottom plates (Greiner). The reaction was initiated by the addition of ATP to a final concentration of 5 μM followed by a 1 h incubation at 30°C. The reaction was then stopped by the addition of STOP solution (50 mM Carbonate-Bicarbonate Buffer, pH 9.6), and then transferred to 96 well DEFLIA yellow plates. The plates were then sealed and incubated o/n at 4°C. Detection and quantification of p(Ser^293)E1α levels was then achieved through incubation with anti-p(Ser^293)E1α primary antibody (Genescript) followed by anti-rabbit secondary IgG-Eu-N1 antibody and addition of enhancement solution as per the manufacturer's instructions. The time-resolved fluorescent signal was then measured using a Victor2 plate reader (Perkin Elmer). The data was fitted by non-linear regression using XLFIT4 within a custom ABASE (IDBS) protocol in order to determine IC50 values.

PDK-1 [4] = molecular target: T3, PDK-1; experiment: PDK-1 fluorescence polarization assay (fluorescein-labelled ATP site probe); assay type: binding; design: PDK-1: residues 30-436; made in house; host or cells: E. coli BL21; settings: fluorescence polarization; mean of n determinations; read-out: PDK-1 FP, IC50
Procedure: carbamoyl]-2-(6-hydroxy-3-oxo-3H-xanthen-9-yl)benzoic acid), which binds to the ATP site of PDK resulting in an increase in anisotropy.
The HSP-90ß FP assay was conducted as previously described.

PC-3 cells [5] = experiment: Cell cycle and sub-G1 analysis (PI/FACS); assay type: cell-based; settings: PC-3, 20 μM, 48 h
Procedure: PC-3 cells were seeded into 6-well plates at a density of 1×10^5 cells per well. […] Following ethanol fixation and treatment with RNAse (Sigma), cellular DNA was stained with propidium iodide (50 μg/mL). The samples were then acquired on a FACSArray (BD Biosciences) flow cytometer and the data analyzed using FACSDiva software.

PC-3 cells [6] = experiment: Combination index analysis and potentiation with β-Chloro-alanine; assay type: cell-based; settings: 20 μM VER-246608
Procedure: (§1) The cells were then incubated for 120 h followed by cell mass determination using the Sulforhodamine B assay. […] Drug interactions were analyzed by the combination index (CI) method based on the method described by Chou. CI values <0.9 indicates synergism, 0.9 to 1.1 additivity, and >1.1 antagonism. The data was expressed in the form of Fa-CI simulation plot generated using calcusyn software (Biosoft). Potentiation assays were carried out as described previously.

PC-3 spheroids = experiment: Spheroid growth assay (3D culture); assay type: cell-based; settings: concentrations of 10 μM and above
Procedure: (§2) Compound cytotoxicity was determined using the Sulforhodamine B assay for cells cultured as a monolayer as described previously (45). For spheroid growth experiments, PC-3 cells were seeded (500 cells/well) into 96 well round bottom plates (Corning Costar 7007) in RPMI-1640 media containing 2.5% (w/v) Matrigel (BD Biosciences). […] Spheroid volumes were determined by obtaining diameter measurements from images taken on a Zeiss Axiovert 200M inverted microscope using the axiovision software.

[7] = tested on: PC-3, SW-1088, UM-22B and MEF cell lines; experiment: Sulforhodamine B cytotoxicity, cell line set; assay type: cell-based
Procedure: as §2

ES-2 cells = experiment: Potentiation assay with doxorubicin, ES-2; assay type: cell-based
Procedure: as §1

T1 sequence (Q15120 9-406): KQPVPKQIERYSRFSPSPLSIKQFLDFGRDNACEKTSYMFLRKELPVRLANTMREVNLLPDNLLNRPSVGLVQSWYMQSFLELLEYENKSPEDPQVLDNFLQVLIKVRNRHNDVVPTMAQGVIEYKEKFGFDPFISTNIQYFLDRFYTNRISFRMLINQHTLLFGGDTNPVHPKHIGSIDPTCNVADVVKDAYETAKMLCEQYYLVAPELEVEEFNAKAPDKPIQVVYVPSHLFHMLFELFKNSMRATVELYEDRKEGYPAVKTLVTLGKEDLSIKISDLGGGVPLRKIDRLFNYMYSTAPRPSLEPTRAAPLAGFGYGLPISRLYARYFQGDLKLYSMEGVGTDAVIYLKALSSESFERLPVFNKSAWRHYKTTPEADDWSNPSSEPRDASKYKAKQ

Row | SMILES | Stimulation of PDK-3 activity (PDK-3) | Stimulation of PDK-4 activity (PDK-4) | Sub-maximal suppression of p(Ser^293)E1α levels [1] | Kd (PDK-1 [2]) | IC50 (PDK-1 [3]) | IC50 (PDK-1 [4]) | Cell cycle distribution (PC-3 cells [5]; serum-starved conditions) | Apoptosis induction (sub-G1 fraction) (PC-3 cells [5]; standard and serum-depleted conditions) | Potentiation factor for β-Chloro-alanine (PC-3 cells [6]) | Reduction in spheroid volume (PC-3 spheroids) | Compound potency under hypoxic conditions ([7]; 0.1% O2) | Cytotoxicity (reduced cell mass) in standard culture ([7]; Sulforhodamine B assay, standard media) | Potentiation of doxorubicin (ES-2 cells)
1 | C[C@@H]1CN(C(=O)[C@](C)(O)C(F)(F)F)[C@@H](C)CN1C(=O)c1ccc(C#N)cc1 [Nov3r, reference compound] | approximately 2 fold | approximately 2 fold | 80% | 8 nM | 3 nM | 83 nM |  |  |  |  |  |  | 
2 | Cc1cnc(Cl)nc1-c1ccc(N(Cc2ccc(CNC(=O)C(F)F)cc2)C(=O)c2ccc(O)cc2O)cc1 [VER-246608] |  |  |  |  |  |  | increased fraction of cells in the G1 phase | No evidence of apoptosis induction | 1.8 ± 0.06 | approximately 50% | no evidence of augmented compound potency | weakly cytotoxic | 3 fold

Reference: paper PMC4350332 (Oncotarget, 2014)
